Here are results for three molecules from paper PMC11235583, “Structural basis of odor sensing by insect heteromeric odorant receptors” (Science (New York, N.Y.), 2024).

Experiment [1] deals with T1, AaOR10/Orco (Ae. aegypti OR10 with A. bakeri Orco) (Aedes aegypti, UniProt Q177X3).
T1 construct: gene GPRor10; co-expressed in HEK293 cells; with Odorant receptor coreceptor (Apocrypta bakeri)
T1 sequence (Q177X3 1-375): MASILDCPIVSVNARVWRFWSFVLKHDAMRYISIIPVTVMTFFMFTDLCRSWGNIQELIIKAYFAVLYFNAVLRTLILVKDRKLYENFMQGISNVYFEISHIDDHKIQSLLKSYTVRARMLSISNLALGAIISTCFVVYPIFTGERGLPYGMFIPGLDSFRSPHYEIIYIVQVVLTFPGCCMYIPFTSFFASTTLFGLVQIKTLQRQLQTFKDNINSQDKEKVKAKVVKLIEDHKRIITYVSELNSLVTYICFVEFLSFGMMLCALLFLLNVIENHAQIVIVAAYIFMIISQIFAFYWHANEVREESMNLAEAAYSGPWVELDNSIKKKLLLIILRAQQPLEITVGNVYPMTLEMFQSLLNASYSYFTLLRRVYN
T1 sequence (B0FAQ4 1-474 partner): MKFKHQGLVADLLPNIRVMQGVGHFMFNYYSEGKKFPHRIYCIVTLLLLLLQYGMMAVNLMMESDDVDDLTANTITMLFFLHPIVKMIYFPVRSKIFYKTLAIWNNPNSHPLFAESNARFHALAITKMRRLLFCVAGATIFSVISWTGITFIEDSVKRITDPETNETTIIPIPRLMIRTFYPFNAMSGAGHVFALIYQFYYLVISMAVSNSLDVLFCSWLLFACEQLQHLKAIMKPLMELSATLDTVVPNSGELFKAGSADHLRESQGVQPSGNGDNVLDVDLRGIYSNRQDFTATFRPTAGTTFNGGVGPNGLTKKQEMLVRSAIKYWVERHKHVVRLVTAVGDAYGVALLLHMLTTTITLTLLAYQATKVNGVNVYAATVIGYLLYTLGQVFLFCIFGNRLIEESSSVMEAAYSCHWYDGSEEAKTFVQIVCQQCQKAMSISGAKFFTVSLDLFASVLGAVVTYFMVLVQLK
Put plainly: whole-cell voltage clamp, HEK293T cells. The class given is cell-based. As to conditions: agonist. An excerpt:
whole-cell voltage clamp, HEK293T cells on AaOR10/Orco (Ae. aegypti OR10 with A. bakeri Orco) | whole-cell currents of AaOR10/Orco are indistinguishable in EC50 and overall dose-response parameters | measure their response to indole and o-cresol, canonical odorants known to activate AaOR10 heteromers

Experiment [2] addresses T2, AaOR10 in complex with the Orco from Ae. aegypti (Aedes aegypti, UniProt Q177X3).
T2 construct: gene GPRor10; both subunits from Ae. aegypti, co-expressed in HEK293T cells; stoichiometry not determined; with Odorant receptor coreceptor
T2 sequence (Q177X3 1-375): T1 sequence (Q177X3 1-375)
T2 sequence (Q178U6 1-478 partner): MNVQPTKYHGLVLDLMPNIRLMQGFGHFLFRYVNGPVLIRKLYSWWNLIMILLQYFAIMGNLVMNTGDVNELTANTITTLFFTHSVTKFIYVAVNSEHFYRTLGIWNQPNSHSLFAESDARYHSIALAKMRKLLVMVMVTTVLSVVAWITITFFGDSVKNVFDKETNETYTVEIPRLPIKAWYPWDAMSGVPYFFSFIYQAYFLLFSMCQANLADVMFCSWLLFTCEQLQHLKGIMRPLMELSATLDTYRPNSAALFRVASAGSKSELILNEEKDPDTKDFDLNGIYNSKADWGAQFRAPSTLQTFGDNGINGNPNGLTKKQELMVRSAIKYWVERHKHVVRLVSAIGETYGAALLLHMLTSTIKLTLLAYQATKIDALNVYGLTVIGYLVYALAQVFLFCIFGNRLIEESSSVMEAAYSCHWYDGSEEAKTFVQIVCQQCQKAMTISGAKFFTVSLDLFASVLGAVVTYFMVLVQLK
In words: whole-cell voltage clamp, HEK293T cells. The experiment is classed as cell-based. As to conditions: agonist. The text has this: whole-cell voltage clamp, HEK293T cells on AaOR10 in complex with the Orco from Ae. aegypti | those obtained with AaOR10 in complex with the Orco from Ae. aegypti | AaOR10 with either A. bakeri (black) or Ae. aegypti Orco (gold)

For experiment [3], the target named is T1, AaOR10/Orco (Ae. aegypti OR10 with A. bakeri Orco). Put plainly: cryo-EM structure of complex. The experiment is classed as binding. As to conditions: 2.9 Å; one site, in the OR10 subunit (S2, S3, S4, S6).
For experiment [4], the target named is Anopheles gambiae odorant receptor OR28 (Anopheles gambiae). In words: cryo-EM structure; AgOR28 co-expressed with A. bakeri Orco, purified complex; unbound and 2,4,5-trimethylthiazole (TMT)-bound states.
Experiment [5] deals with Aedes aegypti odorant receptor OR10 (Aedes aegypti). In words: cryo-EM structure; AaOR10/Orco heteromers co-expressed in HEK293 cells (1:1 OR to Orco virus), purified by an affinity tag on the OR subunit, in detergent micelle; unbound and o-cresol-bound states.
The mark [6] stands for this setting: far from saturation at high concentration, limiting goodness of fit.

For the molecule `c1ccc2[nH]ccc2c1` [indole], the EC50 in experiment [1] (Hill coefficient about one) came to 1.09 µM; in experiment [2] it was 1.51 µM.

With `Cc1ccccc1O` [o-cresol], the figures for the 50% effective concentration (EC50) in experiment [1] (setting [6]) and in experiment [2] (setting [6]) were 13.3 µM and 11.3 µM, respectively. The “cryo-EM structure of complex” value in experiment [3] was “determined the cryo-EM structure of the AaOR10/Orco complex bound to o-cresol”.

B1: Apocrypta bakeri odorant receptor co-receptor Orco (receptor)
chain: T1 sequence (B0FAQ4 1-474 partner)
Consider B1, for which the stoichiometry N (Orco subunits per OR subunit) in experiment [4] and in experiment [5] was 3 in each case.

Broadly, the EC50 is the concentration giving half of the maximal effect. The low end stands for greater potency, the high end for weaker potency.
